From US20040141944A1, “Inhibition of xenoreactive antibodies” (priority 1998, published 2004) come the findings set out here.

≈ marks a conversion by molar mass, not a printed value. Like-named read-outs stand apart in the source and are kept apart here.

One data set deals with total IgM and total IgG. Description: 810S-treated baboons: total IgM and total IgG by ELISA. It is filed as in vivo, baboon. The note with it: all 3 animals, throughout the experiment. Here is the method: FIG. 28 is a graph of baboon 46-98 antibody response to 810S. Baboon 46-98 was treated with 810S (50 mg/kg) every 3 days for a total of 6 treatments. Serum was analyzed for IgM and IgG antibodies directed against the α-gal epitope (XIgM or XIgG), as well as for total IgM (TotIgM) or total IgG (TotIgG) by ELISA. The percent antibody remaining was calculated using baseline values as 100%.
(§1) A total of 6 baboons were used. Three baboons (designated 51-98, 48-98 and 47-98) underwent immunoapheresis (IP) using α-gal columns, with plasma from 3 blood volumes being passed over the columns every 3 days for a total of 6 treatments. Three other baboons (designated 46-98, 52-98, 50-98) received IV infusions of 810S at 50 mg/kg every 3 days for a total of 6 treatments. No immunosuppression or exposure to pig organs was included in the protocol.
On the technique in general: An ELISA detects its analyte on a solid surface through an enzyme-linked reagent.

Data set [1] concerns anti-Gal antibodies in baboon serum. Description: competition ELISA, inhibition of xenoreactive antibody activity (IC50). Type of data set: binding. Conditions: for IC50 (FIG. 24): mass per volume of polymer, new pipette tip for each addition. The procedure:
Principle of the assay: A competition ELISA was set up in such a way that Gal-molecules linked to human serum albumin and immobilized onto a microtiter plate and Gal-molecules linked to PEG compete for anti-Gal antibodies in baboon serum. The antibodies binding to the Gal-HSA were visualized using secondary antibodies to these antibodies with appropriate color development agents. The color in the case in which no Gal-PEG was added was defined as 100%. The IC50 was defined, for FIG. 3, as the concentration of Gal-PEG needed to inhibit 50% of the color development when trying to detect antibodies immobilized onto the Gal-HSA plate. For FIG. 24, the IC50 is defined in terms of mass per volume, e.g. mg/mL, of polymer.
Briefly, a 96 well microtiter was coated with 100 ul/well of a 30 ug/mL solution of αGal(1,3)Gal β 1-4 GlcNAc-human serum albumin (Gal-HSA) and incubated for 90 minutes at room temperature. After incubation with Gal-HSA, the plate was blocked with 1% HSA in PBS for 60 minutes.
While the microtiter plate was coated and blocked, samples were prepared as follows: Fifteen different dilution solutions were prepared for 1 plate. The first dilution solution was 1% HSA in PBS. […] were obtained by preparing a 2.5 mL stock solution of 10 mM αGal(1,3)Gal β 1-4 GlcNAc in 1% HSA/PBS and then serially diluting 1/10 three times. Dilution solutions 6-15 were obtained by preparing a 2.5 mL stock solution of the first concentration of modified PEG and then serially diluting 1/10 nine times in 1% HSA in PBS.
The plate was incubated for 90 minutes at 4° C. The plate was washed five times with PBS containing 0.5% Tween 20 and blot dried.
When assaying for xenoreactive IgM, 100 ul/well of Goat anti-human IgM-biotin antibody, diluted 1/4000 in 1% HSA/PBS, was added.
When assaying for xenoreactive IgG, 100 ul/well of Goat anti-human IgG-biotin antibody, diluted 1/4000 in 1% HSA/PBS, was added.
The biotinylated secondary antibody was incubated for one hour at 4° C. and afterwards the plate was washed five times with PBS containing 0.5% Tween 20 and blot dried. Hereafter, 100 ul/well streptavidin-alkaline phosphatase conjugate was added at a dilution of 1/4000 in 1% HSA/PBS and incubated for 30 minutes at room temperature. The microtiter plate was washed five times with PBS containing 0.5% Tween 20 and blot dried. 150 ul developer per well was added and the plate incubated for 30 minutes at room temperature. The color development was stopped by addition of 40 ul/well of 3 M NaOH. The plate was read in a plate reader at wavelength of 405 nm.
The IC50 data was calculated from the percent inhibition from the dilution of baboon control in 1% HSA/PBS which gave this highest point within the linear range.
% Inhibition=(([OD of BC in HSA]−[OD of BC in αGal(1,3)Gal β 1-4 GlcNAc or PEG-(αGal(1,3)Gal β 1-4 GlcNAc)x])/OD of BC in HSA)*100

Data set [2] has as its system α-gal antibody secreting cells (ASCs). Description: 810S vs immunoapheresis: peripheral α-gal antibody secreting cells (ELISPOT). It is filed as in vivo, baboon. The procedure: FIG. 34 compares the IgG response between IP and TPC (810) treated baboons. Baboons were either treated with 810S (50 mg/kg) every 3 days for a total of 6 treatments, or underwent a total of 6 immunoapheresis treatments using α-gal columns every 3 days. Peripheral blood mononuclear cells were collected and analyzed for the number of cells secreting IgG antibodies directed against α-gal using an ELISPOT analysis. The fold-change in antibody secreting cells (ASCs) was calculated by normalizing to baseline values. Values are represented as the mean from 3 baboons per group.
FIG. 35 compares the IgM response between IP and TPC (810) treated baboons. Baboons were either treated with 810S (50 mg/kg) every 3 days for a total of 6 treatments, or underwent a total of 6 immunoapheresis treatments using α-gal columns every 3 days. Peripheral blood mononuclear cells were collected and analyzed for the number of cells secreting IgM antibodies directed against α-gal using an ELISPOT analysis. The fold-change in antibody secreting cells (ASCs) was calculated by normalizing to baseline values. Values are represented as the mean from 3 baboons per group.
as §1
(§2) In both groups, serum samples and blood were collected to measure α-gal antibody levels and ASCs during the treatment period and during a follow-up period out to approximately 150-180 days.

The nature of data set [3]: presence of 810S in baboon serum at day 30 (competition with human XNA binding to GAL-HSA). Conditions: day 30 serum. It is filed as in vivo. The source says: To investigate whether 810S was still in baboon serum by day 30, serum was mixed with human serum and analyzed by ELISA for competition with human XNA binding to GAL-HSA.
For data set [4], the system named is IgM and IgG antibodies directed against the α-gal epitope (XNA). Description: 810S vs immunoapheresis: circulating α-gal antibodies (serum ELISA). It is filed as in vivo, baboon. The procedure:
FIG. 26 is a graph of IgM XNA Levels: 810S vs IP-treated baboons. Baboons were either treated with 810S (50 mg/kg) every 3 days for a total of 6 treatments, or underwent a total of 6 immunoapheresis treatments using α-gal columns every 3 days. Serum from each baboon was analyzed by ELISA for IgM antibodies directed against the α-gal epitope. The percent IgM XNAs remaining were calculated using baseline values from each animal as 100%.
FIG. 27 is a graph of IgG XNA Levels: 810S vs IP-treated baboons. Baboons were either treated with 810S (50 mg/kg) every 3 days for a total of 6 treatments, or underwent a total of 6 immunoapheresis treatments using α-gal columns every 3 days. Serum from each baboon was analyzed by ELISA for IgG antibodies directed against the a -gal epitope. The percent […] XNAs remaining were calculated using baseline values from each animal as 100%.
as §1, §2

Setting [5] is: 50 mg/kg IV every 3 days, after the final (6th) treatment.

A word on the IC50: it is the concentration that gives 50% inhibition. As for “(αGal(1,3)Gal β 1-4 GlcNAc)8-PEG [Example 810S]”, in the data set with total IgM and total IgG, the “total IgM and IgG levels” value was “remained relatively constant”. Also, the “IC50” value in data set [1] (approximate, 810 S and its diafiltration fractions (Example 30)) amounted to 0.005 µg/mL. Moreover, the IC50 (FIG. 24) in data set [1] was 0.5 µg/mL. The “IgM and IgG ASC levels, % of initial levels” value in data set [2] (1 week after day 30) is listed as “about 62%”; in data set [2] (by the second treatment with 810S), 20-40%; in data set [2] (day 30, 2 weeks after 810S treatment was terminated) it was “about 38%”. The “IgM and IgG ASCs, % of starting levels” value in data set [2] (after the sixth treatment) was 3-6%. The “IgM and IgG ASCs, % initial levels” value in data set [2] (by the fourth treatment) was “about 10%”. The “810S still in baboon serum” value in data set [3] is on record as “not still in circulation”. Also, the “IgG XNA levels, % of baseline values” in data set [4] (setting [5]) is 1-9%; in data set [4] (by day 30), 20-33%; in data set [4] (day 184, 2 810S-treated baboons), 30-38%. Further, the “IgM XNA levels, % of baseline values” is given as 1-3% in data set [4] (setting [5]); 8-18% in data set [4] (by day 30); 24-39% in data set [4] (day 184, the other 2 baboons). Also, the “circulating IgG and IgM XNA levels, % of initial levels” value in data set [4] (50 mg/kg IV, after the 1st treatment, all 3 baboons) is 1-13%. Moreover, the “IgM XNA levels, % of baseline levels” value in data set [4] (day 184, 3rd baboon) came out at 60%. Also, the “IgG XNA levels” value in data set [4] (day 184, one (3rd) baboon) is “returned to baseline”.
Consider “(αGal(1,3)Gal β 1-4 GlcNAc)8, PEG [Example 810E]”, for which the “IC50 (FIG. 24)” value in data set [1] stood at 100 µg/mL.
Consider `CC(=O)N[C@H]1C(O)O[C@H](CO)[C@@H](O[C@@H]2O[C@H](CO)[C@H](O)[C@H](O[C@H]3O[C@H](CO)[C@H](O)[C@H](O)[C@H]3O)[C@H]2O)[C@@H]1O` (stereo partly drawn) [free sugar, αGal(1,3)Gal β 1-4 GlcNAc, reference compound], for which the IC50 in data set [1] is 50000 µg/mL (≈ 91.7 mM).
In data set [1], “(αGal(1,3)Gal β 1-4 GlcNAc)8-PEG [Example 410L]” showed a concentration for half-maximal inhibition (IC50) of 500 µg/mL. Also, the “times more effective per coupled sugar than the free sugar” value in data set [1] (from IC50 of 410L versus free sugar) is 100 times.
